# Results as given in patent US20230348506A1, “MACROCYCLIC PANTETHEINE DERIVATIVES AND USES THEREOF” (VectivBio Comet AG, priority 2019, published 2023).
# Experiments:
# Assay type in all cases: cell-based, human
# [1] = system: Methylmalonic Acidemia (MMA) Primary fibroblasts (Tsi 5224 Trans-Hit Bio, 21498 Telethon Network of Genetic Biobanks); assay: Measurement of ATP (ATPlite assay); settings: 10 μM compound for 2 hours
# Procedure: Primary adherent fibroblasts were cultured in minimum essential medium (MEM) (Gibco, 25030081) supplemented with 2 mM L-Glutamine (Gibco, 25030081), 15% fetal bovine serum (FBS) (Gibco, 26400044) and 1% penicillin/streptomycin (Gibco, 5140122) at 37° C. and 5% CO2. Cells were collected for either passaging or experiment at ˜70-80% confluence. Cells were obtained by trypsinization and seeded in cell culture microplates either white plate (Thermo Fisher Scientific, 152028) for luminescent measurement or black plate (Thermo Fisher Scientific, 165305) for fluorescent based read out for different assays listed below. Cells were obtained by trypsinization and […] were seeded and allowed to adhere for 16-18 hours to have confluency around 70-80% in the cell well with culture media. After 24 hours prior to measurements (37° C., 5% CO2) media was changed to Dulbecco's Modified Eagle Medium (DMEM, Agilent Seahorse cat #103575-100) with the appropriate supplements (1 mM glucose, 2 mM L-glutamine, 1 mM pyruvate, 10% FBS).
# Assay was performed according to manufacturer instructions (ATPlite Assay Perkin Elmer, 6016941). 50 μl of cell lysis buffer was added to each well with cells in 100 μl of media and incubated for 5 mins at RT in an orbital shaker at 700 rpm to lyse the cells and stabilize the ATP. […]
# [2] = system: MMA Patient fibroblasts (GM01673, Coriell Institute for Medical Research); assay: Mitochondrial fusion and networking (high-content imaging); set-up: key: Mitochondrial elongation and networking was described as slight, mild or good; Mitochondrial elongation and networking was described as slight, mild or good; Mitochondrial elongation and networking was described as slight, mild or good; settings: 10 μM compound, 2 hours, compared to vehicle control
# Procedure: (§1) Cells were seeded in 96-well plates (density 3000 cells/well) in culture minimum MEM (GIBCO, 10370-021) supplemented with 2 mM L-Glutamine (Thermo Fisher Scientific), 15% FBS (Thermo Fisher Scientific 26400044) and 1% penicillin/streptomycin. Cells were incubated for 48 hours (37° C, 5% CO2), then treated with 10 μM compounds from the present disclosure, 1% DMSO (vehicle) or 5 μM FCCP (control) for 2 hours in fasted conditional medium: Agilent XF DMEM (Agilent 103575-100), pH 7.4 supplemented with 10% FBS (Thermo Fisher Scientific 26400044), 0.03% penicillin/streptomycin 1 mM glucose, 2 mM L-glutamine and 1 mM pyruvate.
# (§2) After treatment, media was removed, and cells were stained with 100 μl of 1×mixture dye solution of 1 μg/mL JC-1 (Invitrogen Cat #T3168) and 50 ng/ml MitoTracker deep red (Invitrogen Cat #M22426) at 37° C. for 30 minutes. Next, staining was removed, the cells were washed once with 150 μl PBS, and 150 μl of fasted conditional medium (described above) is added to each well. Analysis was carried out on live cells using a Thermo Scientific CellInsight CX7 LZR High-Content Screening Platform. Mitochondrial elongation and networking was described as slight, mild or good.
# [3] = system: PA Patient fibroblasts (Tsi 3618 Trans-Hit Bio); assay: as above; set-up: key: Mitochondrial elongation and networking was described as slight, mild or good; Mitochondrial elongation and networking was described as slight, mild or good; Mitochondrial elongation and networking was described as slight, mild or good; settings: 10 μM compound, 2 hours, compared to vehicle control
# Procedure: as §1, §2
smiles,measurement,setting,value
"CC1(C)COC(=O)CCC(=O)SCCNC(=O)CCNC(=O)[C@@H]1O [Compound 206, (R)-15-hydroxy-16,16-dimethyl-1-oxa-6-thia-9,13-diazacycloheptadecane-2,5,10,14-tetraone]",increase of ATP levels,[1],at least 5%
same,mitochondrial elongation and networking,[2],good
same,mitochondrial elongation and networking,[3],mild
